compound: COc1cc([C@@H]2c3cc4c(cc3[C@@H](O[C@@H]3O[C@@H]5CO[C@@H](C)O[C@H]5[C@H](O)[C@H]3O)[C@H]3COC(=O)[C@H]23)OCO4)cc(OC)c1O [Etoposide] + CS(=O)(=O)CCNCc1ccc(-c2ccc3ncnc(Nc4ccc(OCc5cccc(F)c5)c(Cl)c4)c3c2)o1 [Lapatinib] (partner 2 µM); assay: relative viability (nuclei count vs DMSO), 5 days (fraction); higher = more cells survive; conditions: first compound 0.01 µM
Summary of the method: (§1)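 One day after seeding in 1536-well plates, lung cancer cell lines were dosed by pin tool. Dosing was either single-drug or a fixed anchor-drug dose plus five library-drug doses (not always all listed) in √10 steps. After 5 days, nuclei were stained in one fix-and-stain step and counted on 4× images, and relative viability is the nuclei count of treated wells over that of vehicle wells, given as the median of duplicate plates.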

Cell Line	relative viability
NCI-H838	0.996
NCI-H1650	0.696
EBC-1	0.2
NCI-H1993	0.95
PC-14	0.307
NCI-H596	0.94
NCI-H2228	0.84
EMC-BAC-2	0.855

same assay, conditions: first compound 0.03162 µM

Cell Line	relative viability
NCI-H838	1.02
NCI-H1650	0.781
EBC-1	0.245
NCI-H1703	1.14
NCI-H1993	0.797
NCI-H2087	0.83
PC-14	0.349
NCI-H596	1.03
NCI-H2228	1.05
EMC-BAC-2	0.822

same assay, conditions: first compound 0.1 µM

Cell Line	relative viability
NCI-H838	0.617
NCI-H1650	0.479
NCI-H1703	0.866
NCI-H1993	0.75
NCI-H2087	0.912
PC-14	0.225
NCI-H2228	0.846
EMC-BAC-2	0.572

same assay, conditions: first compound 0.3162 µM

Cell Line	relative viability
NCI-H838	0.478
NCI-H1650	0.217
EBC-1	0.214
NCI-H1703	0.376
NCI-H1993	0.659
NCI-H2087	0.551
PC-14	0.366
NCI-H596	1.08
NCI-H2228	0.703
EMC-BAC-2	0.344

same assay, conditions: first compound 1 µM

Cell Line	relative viability
NCI-H838	0.171
NCI-H1650	0.144
EBC-1	0.196
NCI-H1703	0.271
NCI-H1993	0.657
NCI-H2087	0.278
PC-14	0.229
NCI-H596	0.625
NCI-H2228	0.138
EMC-BAC-2	0.215

compound: CC1=C(N=C(N=C1N)[C@H](CC(=O)N)NC[C@@H](C(=O)N)N)C(=O)N[C@@H]([C@H](C2=CN=CN2)OC3C(C(C(C(O3)CO)O)O)OC4C(C(C(C(O4)CO)O)OC(=O)N)O)C(=O)N[C@H](C)[C@H]([C@H](C)C(=O)N[C@@H]([C@@H](C)O)C(=O)NCCC5=NC(=CS5)C6=NC(=CS6)C(=O)NCCC[S+](C)C)O [Bleomycin] + CS(=O)(=O)N1CCN(Cc2cc3nc(-c4cccc5[nH]ncc45)nc(N4CCOCC4)c3s2)CC1 [Pictilisib] (partner 1 µM); assay: as above; conditions: first compound 0.01 µM; main component drawn
Summary of the method: as §1

Cell Line	relative viability
NCI-H838	0.414
NCI-H1650	0.408
EBC-1	0.359
NCI-H1703	0.226
NCI-H1993	0.647
NCI-H2087	0.766
PC-14	0.369
LCLC-103H	0.638
NCI-H596	0.379
NCI-H2228	0.553
EMC-BAC-2	0.498

same assay, conditions: first compound 0.03162 µM; main component drawn

Cell Line	relative viability
NCI-H838	0.28
NCI-H1650	0.318
EBC-1	0.376
NCI-H1703	0.236
NCI-H1993	0.807
NCI-H2087	0.874
PC-14	0.259
LCLC-103H	0.573
NCI-H596	0.419
NCI-H2228	0.356
EMC-BAC-2	0.489
ChaGo-K-1	0.728
NCI-H441	0.439

same assay, conditions: first compound 0.1 µM; main component drawn

Cell Line	relative viability
NCI-H838	0.18
NCI-H1650	0.255
EBC-1	0.346
NCI-H1703	0.26
NCI-H1993	0.794
NCI-H2087	0.775
PC-14	0.159
LCLC-103H	0.54
NCI-H596	0.329
NCI-H2228	0.386
EMC-BAC-2	0.427
ChaGo-K-1	0.655
NCI-H441	0.482

same assay, conditions: first compound 0.3162 µM; main component drawn

Cell Line	relative viability
NCI-H838	0.156
NCI-H1650	0.139
EBC-1	0.272
NCI-H1703	0.219
NCI-H1993	0.681
NCI-H2087	0.236
PC-14	0.0359
LCLC-103H	0.34
NCI-H596	0.268
NCI-H2228	0.361
EMC-BAC-2	0.282
ChaGo-K-1	0.406
NCI-H441	0.316

same assay, conditions: first compound 1 µM; main component drawn

Cell Line	relative viability
NCI-H838	0.202
NCI-H1650	0.125
EBC-1	0.283
NCI-H1703	0.176
NCI-H1993	0.688
NCI-H2087	0.247
PC-14	0.0457
LCLC-103H	0.255
NCI-H596	0.261
NCI-H2228	0.328
EMC-BAC-2	0.222
ChaGo-K-1	0.217
NCI-H441	0.267

compound: CC1=C(N=C(N=C1N)[C@H](CC(=O)N)NC[C@@H](C(=O)N)N)C(=O)N[C@@H]([C@H](C2=CN=CN2)OC3C(C(C(C(O3)CO)O)O)OC4C(C(C(C(O4)CO)O)OC(=O)N)O)C(=O)N[C@H](C)[C@H]([C@H](C)C(=O)N[C@@H]([C@@H](C)O)C(=O)NCCC5=NC(=CS5)C6=NC(=CS6)C(=O)NCCC[S+](C)C)O [Bleomycin]; assay: relative viability (nuclei count vs DMSO), 5 days (fraction); higher = more cells survive; conditions: 0.01 µM; main component drawn
Summary of the method: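 Viability was defined as treated-well nuclei divided by vehicle-well nuclei, with the median taken over replicate plates. Cells from lung cancer lines sat overnight at 37 °C in 1536-well plates, received five √10-spaced library-drug doses by pinning on vehicle-anchored plates, and grew 5 days without medium change before one-step fixation, permeabilisation and Hoechst staining, 4× imaging and MetaXpress nuclear counts. Only plates with control CV under 25% and at least one doubling were kept.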

Cell Line	relative viability
NCI-H522	0.833
NCI-H1623	0.84
NCI-H838	0.692
NCI-H1650	0.584
EBC-1	0.893
NCI-H1703	0.928
NCI-H1993	0.853
NCI-H2087	0.822
PC-14	0.656
LCLC-103H	0.916
NCI-H596	0.775
NCI-H2228	0.902
EMC-BAC-2	0.72
NCI-H2342	1.02
ChaGo-K-1	0.832
SW 900	0.697
NCI-H1648	0.71
NCI-H441	0.626

same assay, conditions: 0.03162 µM; main component drawn

Cell Line	relative viability
NCI-H522	0.79
NCI-H1623	0.936
NCI-H838	0.436
NCI-H1650	0.394
EBC-1	0.951
NCI-H1703	0.895
NCI-H1993	0.899
NCI-H2087	1.06
PC-14	0.612
LCLC-103H	0.94
NCI-H596	0.754
NCI-H2228	1.01
EMC-BAC-2	0.91
NCI-H2342	0.999
ChaGo-K-1	0.895
SW 900	0.816
NCI-H1648	0.696

— the supplement of paper PMC10307832
